The values that follow come from a melting point compilation (Tetko et al.; mined from patent text by program, amines drawn as free bases though some values may be those of a salt).

With `O=C(O)c1ccc(Cl)c2c1OCCO2`, the melting point was determined as 195 °C.

`COc1cc2c(c(OC)c1)C(Cc1ccc(-c3ccccc3OC)cc1)N(C(=O)OC(C)(C)C)CC2` (centres undefined) displayed a melting point of 126 to 128 °C.

With `CN1CNC(=O)NC1=O`, the melting point was 252 to 254 °C.

`CCN(C)c1nc2sc3c(NCCCN4CCCC4=O)ncnc3c2c2c1CCC(C)(C)C2`: the melting point was 166 to 167 °C.

For `CCCc1nc2cccc(C(=S)OC)c2n1Cc1ccc(-c2ccccc2C#N)cc1`, the melting point was in the range of 107 to 108 °C.

For `COCCNC(=O)c1ccnc(-c2cccc3cc(Cc4cccc(C(F)(F)F)c4)sc23)c1F`, the melting point is 94 to 95 °C.

For `CC(=O)Nc1ccccc1C(=O)N1CC2CC2(c2ccccc2)C1` (centres undefined), the melting point was 124 to 127 °C.

`Cn1nnc2c(N3CCOCC3)nc(Cl)nc21` had a melting point of 168 °C.

`Nc1sc(-c2ccccc2)c(CN(C2CCCCC2)C2CCCCC2)c1C(=O)c1ccc(Cl)cc1` gave a melting point of 201 to 203 °C.

As for `CCCCCCCCCN(C)c1ccc(S(=O)(=O)Nc2ccccc2)cc1`, the melting point was 113 to 116 °C.

`NC(=O)OC[C@@H]1[C@H](NC(=O)/C(=N\OCC(=O)O)c2csc(N)n2)C(=O)N1S(=O)(=O)O` showed a melting point of 207 °C.

The compound `CNC(=C[N+](=O)[O-])NCCCSc1nccc(NC(N)=NCC(F)(F)F)n1` yielded a melting point of 189 to 191 °C.

For the compound `COP(=O)(NNC(C)(C)C)OC`, the melting point fell in the range of 61 to 68 °C.

With `CCCCCCCCCCCCCCc1ccc(O)c(C(=O)CCCCC)c1`, the melting point lay in the range of 41 to 42 °C.

The compound `COc1cc(O)c(C(=O)C=Cc2ccco2)c(OC)c1` had a melting point of 98.4 °C.

On to `C#CCC(C1=Nc2cnccc2C(=O)C1Nc1ccccc1)N(CCCNC(=O)OCc1ccccc1)C(=O)c1cccc(Cl)c1F` (centres undefined), for which the melting point was 100 to 102 °C.

With `COc1cc2c(cc1-c1ccccc1F)NC(=O)CC(c1cccc(-n3ccnc3C)c1)=N2`, the melting point lay in the range of 220 to 222 °C.

Compound `CC(C)S(=O)(=O)N1C[C@@H](c2c[nH]c3ccccc23)[C@H](c2cn3c4c(cccc24)CCC3)C1` gave a melting point of 100 to 115 °C.

As to `CC(C)Oc1ccccc1-c1cc(=O)c2cc(C#N)ccc2o1`, the melting point lay within 172 to 175 °C.

On to `Fc1ccc(-c2n[nH]cc2-c2ccnc(Cl)n2)cc1`, for which the melting point fell in the range of 204 to 205 °C.

`CCn1cc(/C=C/c2cn(-c3ccccc3)nc2OCc2ccc(OCc3nc(-c4ccc(CC(=O)O)cc4)oc3C)c(OC)c2)cn1` registered a melting point of 146 to 147 °C.

For `CCC=C(CCC)C(=O)O`, the melting point stood at 38 °C.

In turn, `CC(=O)Nc1nc(N)c2ncn(C3OC(C(O)C(=O)O)C(O)C3O)c2n1` (centres undefined) displayed a melting point of 295 °C.

`FC(F)(F)c1cccc(-c2cnnn2-c2cc(Cl)ccc2-c2nnn[nH]2)c1` gave a melting point of 230 to 232 °C.

Turning to `CCc1cccc2c3c([nH]c12)C(C)(CC(=O)O)CCCC3` (centres undefined), the melting point is 148 to 151 °C.

Take `COc1cc(C(C)=O)ccc1OCCCCN1CCC(c2n[nH]c3cc(F)ccc23)CC1`: the melting point lay within 158 to 160 °C.

Compound `CSc1nccc(C(=NO)C(=O)c2cccc(Br)c2)n1` had a melting point of 156 to 158 °C.

In turn, `CCCCCCCCCCCCCCOc1cccc(C(=O)N(CC(=O)O)CC(=O)O)c1` came in with a melting point of 96 to 99 °C.

`CCc1ccc(-c2c(Cl)c(CN3C(=O)CCC3=O)nc3sc4c(c23)CCN(C(=O)OCc2ccccc2)C4)cc1` came in with a melting point of 170 to 171 °C.

The compound `COC(=O)c1ccc(C2=NOC(c3cc(Cl)cc(C(F)(F)F)c3)(C(F)(F)F)C2)c2ccccc12` (centres undefined) registered a melting point of 112 °C.

On to `O=c1[nH]c2ncc(-c3ccc4[nH]ncc4c3)nc2n1CC1CCCCC1`, for which the melting point fell in the range of 311 to 313 °C.

`CN(Cc1ccccc1)C(=O)c1ccc2nonc2c1` yielded a melting point of 105 to 106 °C.

`O=C(O)CCCCN(Cc1ccccc1)Cc1ccccc1` showed a melting point of 202 to 205 °C.

For `CCOC(=O)C1CCc2c(C)c(O)c(C)c(C)c2O1` (centres undefined), the melting point was 108 to 109 °C.

In the case of `Cc1ccc(CN(C(=S)Nc2ccccc2)C2CCCC2)cc1`, the melting point fell in the range of 109 to 111 °C.

In turn, `CCCCc1nc2ccccn2c(=O)c1-c1ccc(N[C@@H]2CCN(C)C2)cc1` showed a melting point of 64 to 66 °C.

`CN(C)C1Cc2cccc3[nH]c(=S)n(c23)C1` (centres undefined) displayed a melting point of 203 to 205 °C.

As to `Cc1c(C)c2c(c(C)c1O)CCC(C)(C(=O)NCC1(c3ccc(-n4c(C)ccc4C)cc3)CCCC1)O2` (centres undefined), the melting point lay within 90 to 94 °C.

Compound `Nc1ncnc2ncn(CCO)c12` returned a melting point of 132 to 133 °C.

With `CCOC(=O)c1cc(F)c(N2CCCC2)nc1Cl`, the melting point was 95 °C.

`CC(C)(N)c1ccc(-c2nc(Nc3ccc(-n4ccnn4)cc3)ncc2C#N)cc1` gave a melting point of 139 to 140 °C.

The compound `CCC=C1Cc2c(c(C)c(C)c3oc(C(=O)O)cc23)C1=O` yielded a melting point of 301 °C.

Compound `COc1ccc(CNC(=O)c2cn3c(=O)n(Cc4ccc(C(=O)O)cc4)c(=O)c(C)c3s2)cc1` had a melting point of more than 210 °C.

`NS(=O)(=O)c1cc(C(=O)NNc2ccccc2)ccc1Cl` displayed a melting point of 189 to 190 °C.

On to `O=S(CCc1ccccc1)CCc1ccccc1`, for which the melting point fell in the range of 70 to 71 °C.

Consider `CCN(CC)CCNC(=O)Cn1cc(-c2ccccc2)c(-c2ccccc2)n1`, for which the melting point lay within 80 to 83 °C.

The compound `CCCC(=O)NC(=O)C(c1ccccc1)c1ccccc1` showed a melting point of 205 °C.

Compound `COc1nc2cc(Cl)c(F)c(CS(N)(=O)=O)c2nc1OC` gave a melting point of 227 to 228 °C.

In turn, `CCCCc1nn2ccccc2c1C(=O)c1ccc(C#N)cc1` yielded a melting point of 116 °C.

On to `CCOC(=O)c1nc2ccc(N)cc2[nH]1`, for which the melting point is 147 to 149 °C.

Consider `O=C1c2ccccc2C(=O)N1Cc1ccc(Cl)nc1`, for which the melting point was 142 to 143 °C.

Take `Cc1ccc(-c2nsc3[nH]c4ccc(C)cc4c(=O)c23)cc1`: the melting point is 330 °C.

`Cc1cc2c(-c3ccccc3)c(NC(=O)N(C)Cc3ccccc3)n(C)c(=O)c2cc1C` showed a melting point of 174 to 176 °C.

`CC(C)(C)OC(=O)N1CCN(C(=O)c2ccc(-c3[nH]nc4c3C(=O)c3c(NC(=O)NN5CCOCC5)cccc3-4)s2)CC1` yielded a melting point of 225 to 226 °C.

`CCCCN1C(=O)NC(CO)C1=O` (centres undefined) showed a melting point of 93 °C.

In turn, `O=C(O)c1cc(-n2c(-c3ccccc3)cc3c2CCCC3)ccc1S` showed a melting point of 186 to 188 °C.

Turning to `c1ccc2c3cncc-3cncc2c1`, the melting point lay within 220 to 221 °C.

The compound `CC1Cc2ccc(Cl)cc2CN(CCO)C1=O` (centres undefined) displayed a melting point of 139 to 140 °C.

`CN(C)S(=O)(=O)c1ccc(C(O)c2cccc(O[Si](C)(C)C(C)(C)C)c2)cc1` (centres undefined) had a melting point of 100 to 103 °C.

`Cc1nc(C)c(C(=O)Nc2ccc(-n3nc(C(F)(F)F)cc3C(F)(F)F)cc2)s1` came in with a melting point of 158 to 159 °C.

As for `CCCC(C)(C(=O)N(C)C)n1cc(C)c(-c2ccccc2)n1` (centres undefined), the melting point is 90 to 92 °C.

Regarding `CSc1[nH]c(-c2cnn(-c3c(Cl)cc(C(F)(F)F)cc3Cl)n2)nc1[N+](=O)[O-]`, the melting point lay within 153 to 155 °C.

Consider `CN(SC(C)(C)C)C(=O)Nc1ccc(Cl)c(Cl)c1`, for which the melting point is 127 °C.

With `N#Cc1cc(-c2ccccc2)[nH]c1Sc1ccccc1N`, the melting point was 159 to 160 °C.

The compound `O=CN(O)C1(CS(=O)(=O)c2ccc(Oc3ccc(OC(F)(F)F)cc3)cc2)CCC2(CC1)OCCO2` returned a melting point of 133 to 134 °C.

In the case of `O=C(C1CCCCC1)N1C=C2c3ccccc3CCN2C(=O)C1`, the melting point lay in the range of 136 to 138 °C.

Compound `CCOC(=O)c1ncn2c1CN(Cc1ccc(OC)cc1OC)C(=O)c1ccccc1-2` had a melting point of 136 to 138 °C.

Take `COc1ccc(-c2cc(COS(C)(=O)=O)c(=O)n(CC=Cc3ccc(Cl)cc3)n2)cc1F`: the melting point was determined as 136 °C.

In the case of `Cc1ccc(C(=O)O)c(Oc2ccc3c(c2)c(C(=O)O)c(CC(=O)O)n3-c2ccc(OC(C)C)cc2)n1`, the melting point was 179 °C.

`COc1cc([N+](=O)[O-])c2nc(N)ccc2c1` yielded a melting point of 195 to 197 °C.

On to `CN(C)CCCNc1ccnc2cc3c(cc12)OCO3`, for which the melting point is 178 to 181 °C.

`CCOc1cc(CCCOc2c(C)cc(-c3noc(C4CC4)n3)cc2C)on1` came in with a melting point of 70 to 71 °C.

`CCCCN(Cc1ccc(C#N)cc1Cl)c1c(NC(C)(C)C)c(=O)c1=O` had a melting point of 133 to 134 °C.

For `CCOC(=O)c1nc2c(Cl)nc(Cl)c(Cl)n2c1Cl`, the melting point turned out to be 132 °C.

`C=CCc1c(O)ccc2oc(C(=O)c3ccc(F)cc3)c(C)c12`: the melting point fell in the range of 164 to 166 °C.

In turn, `Clc1c(-c2cnco2)[nH]c2ccccc12` showed a melting point of 131 to 134 °C.

Turning to `CC(C)C[C@H](NC(=O)c1ccco1)C(=O)N[C@@H](C(C)C)[C@@H](O)c1c(-c2ccccc2)c1=O`, the melting point is 101 to 105 °C.

Compound `CSc1ccc(/C=C2/C(C)=C(CCO)c3cc(F)ccc32)cc1` returned a melting point of 101 to 103 °C.

For `Cc1cc(C)nc(Sc2ccnc3cc(Cl)ccc23)n1`, the melting point fell in the range of 127 to 130 °C.

`O=C1CCC(N2C(=O)c3cccc(NCc4cccnc4)c3C2=O)C(=O)N1` (centres undefined) showed a melting point of 231 to 233 °C.

As for `O=C1NCc2ccc(-c3cccc4cc(Cc5cccc(C(F)(F)F)c5)sc34)cc21`, the melting point is 151 to 152 °C.

As to `CCOC(=O)Cc1cccc(N)n1`, the melting point lay within 66 to 68 °C.

In turn, `CN(C(=O)CN(O)C(N)=O)c1cccc(OCc2ccccc2)c1` displayed a melting point of 162 to 163 °C.

In turn, `CC(C)(F)Cn1c(CO)nc2c(N)nc3cccnc3c21` yielded a melting point of 240 to 241 °C.

For `N#CCCCC(N)=NO`, the melting point lay within 99.5 to 101 °C.

As for `CNc1nc(Nc2ccc(S(C)(=O)=O)cc2)ncc1[N+](=O)[O-]`, the melting point stood at 323 °C.

The compound `C=CCOc1cc(-n2nc(C)c(C)c2C)c(F)cc1Cl` yielded a melting point of 97 to 99 °C.

In the case of `COc1ccc(C2=NN(CCCCCCN)C(=O)[C@H]3CC=CC[C@@H]23)cc1OC` (relative stereo), the melting point is 141 to 143 °C.

In the case of `C=C1CC(COc2cc(=O)oc3ccccc23)(c2ccccc2)OC1=O` (centres undefined), the melting point lay in the range of 212 to 214 °C.
